Measurements as given in US20230127944A1, “BROAD-SPECTRUM CARBAPENEMS” (priority 2019, published 2023).
Values after ≈ are worked out from the molar mass of the structure shown.

Legend:
Assay type in all cases: cell-based
[1] = tested on: P. aeruginosa ΔmexAB-OprM (an efflux pump knockout); experiment: broth microdilution MIC assay, P. aeruginosa ΔmexAB-OprM; conditions: Pseudomonas aeruginosa, read-out: MIC, P. aeruginosa ΔmexAB-OprM
Description: (§1) To determine the ability of test compounds to inhibit the growth of bacterial strains, classic cell-based broth microdilution MIC assays were employed. MIC assays are performed according to CLSI methods except where otherwise noted (CLSI, 2011 and CLSI, 2009). The reference strains S. aureus ATCC 29213 (methicillin sensitive), S. aureus ATCC 33591 (methicillin-resistant), E. coli ATCC 25922 (wild-type/QC strain), P. aeruginosa ATCC 27853 (wild-type/QC strain), and the clinical isolate P. aeruginosa PA 8 were used to determine the ability of the exemplary carbapenem compounds to inhibit bacterial growth. An expanded panel of methicillin resistance S. aureus (MRSA) and Pseudomonas was also used to determine the ability of exemplary carbapenem compounds to inhibit bacterial growth across a broader representation of those species. To determine activity in MRSA and in addition to S. aureus ATCC 33591, S. aureus USA 300 and USA 600, some of the most common clones found to cause human infection, were also used. To further gauge the impact on the carbapenem compounds due to various resistance mechanisms in Pseudomonas, the following strains were included: P. aeruginosa 35151 (hyper-permeable strain), P. aeruginosa ΔmexAB-OprM (an efflux pump knockout), and P. aeruginosa Paβ-173 (a clinical isolate of reduced carbapenem susceptibility). Briefly, cryo-preserved bacterial cultures of clinical strains are streaked for isolation on appropriate agar medium, in this case Mueller Hinton II agar. Following incubation to allow formation of colonies, these plates are sealed with parafilm and stored refrigerated for up to two weeks. For preparation of assay inocula and to ensure low variability, at least 5 colonies are picked from the agar plates with an inoculating loop and aseptically transferred to a culture tube containing 3 mL of Mueller-Hinton Broth (supplemented with divalent cations to required levels based on Manufacturers' specification). The broth culture is grown for 3-5 hours at 37° C. with shaking at 200 rpm. Meanwhile, 2-fold serial dilutions of test compounds are conducted in a 96 well plate with a final volume of 75 μL per well at 2-fold the final desired concentration. After the dilution plates are set up the growing cultures are then diluted in a cuvette containing MH II broth and the optical density is measured at 600 nm. Inocula are diluted such that 75 μL of this culture in Mueller-Hinton Broth results in a starting bacterial concentration of 5×10^5 CFU/mL when added to the dilution plates. The plates are incubated 16-20 hours at 37° C. The MIC is read visually as the lowest concentration well with no bacterial growth.

[2] = tested on: P. aeruginosa Paeβ-17; experiment: broth microdilution MIC assay, P. aeruginosa Paeβ-17; conditions: Pseudomonas aeruginosa, read-out: MIC, P. aeruginosa Paeβ-17
Description: as §1

[3] = tested on: P. aeruginosa ATCC 27853 (wild-type/QC strain); experiment: broth microdilution MIC assay, P. aeruginosa 27853; conditions: Pseudomonas aeruginosa, ATCC27853; read-out: MIC, P. aeruginosa 27853
Description: as §1

[4] = tested on: S. aureus USA 300; experiment: broth microdilution MIC assay, S. aureus USA300; conditions: Staphylococcus aureus; S. aureus USA300 (MRSA); read-out: MIC, S. aureus USA300
Description: as §1

[5] = tested on: S. aureus ATCC 33591 (methicillin-resistant); experiment: broth microdilution MIC assay, S. aureus 33591; conditions: Staphylococcus aureus, ATCC33591; S. aureus 33591, methicillin-resistant; read-out: MIC, S. aureus 33591
Description: as §1

[6] = tested on: P. aeruginosa 35151 (hyper-permeable strain); experiment: broth microdilution MIC assay, P. aeruginosa 35151; conditions: Pseudomonas aeruginosa, read-out: MIC, P. aeruginosa 35151
Description: as §1

[7] = tested on: S. aureus USA 600; experiment: broth microdilution MIC assay, S. aureus USA600; conditions: Staphylococcus aureus; S. aureus USA600 (MRSA); read-out: MIC, S. aureus USA600
Description: as §1

[8] = tested on: E. coli ATCC 25922 (wild-type/QC strain); experiment: broth microdilution MIC assay, E. coli 25922; conditions: Escherichia coli, ATCC25922; read-out: MIC, E. coli 25922
Description: as §1

Structure (SMILES) | MIC [1] [µg/mL] | MIC [2] [µg/mL] | MIC [3] [µg/mL] | MIC [4] [µg/mL] | MIC [5] [µg/mL] | MIC [6] [µg/mL] | MIC [7] [µg/mL] | MIC [8] [µg/mL]
C[C@@H](O)[C@H]1C(=O)N2C(C(=O)O)=C(SC3CN([C@@H]4CCC[C@H](N)C4)C3)[C@H](C)[C@H]12 [Example 14, (4R,5S,6S)-3-((1-((1R,3S)-3-aminocyclohexyl)azetidin-3-yl)thio)-6-((R)-1-hydroxyethyl)-4-methyl-7-oxo-1-azabicyclo[3.2.0]hept-2-ene-2-carboxylic acid] | 1 to 4 (≈ 2.53 to 10.1 µM) | 8 to 32 (≈ 20.2 to 80.9 µM) | 1 to 4 (≈ 2.53 to 10.1 µM) | 1 to 4 (≈ 2.53 to 10.1 µM) | 1 to 4 (≈ 2.53 to 10.1 µM) | < 1 | 1 to 4 (≈ 2.53 to 10.1 µM) | < 1
C[C@@H](O)[C@H]1C(=O)N2C(C(=O)O)=C(SC3CN([C@H]4CCC[C@@H](N)C4)C3)[C@H](C)[C@H]12 [Example 15, (4R,5S,6S)-3-((1-((1S,3R)-3-aminocyclohexyl)azetidin-3-yl)thio)-6-((R)-1-hydroxyethyl)-4-methyl-7-oxo-1-azabicyclo[3.2.0]hept-2-ene-2-carboxylic acid] | 1 to 4 (≈ 2.53 to 10.1 µM) | 8 to 32 (≈ 20.2 to 80.9 µM) | 1 to 4 (≈ 2.53 to 10.1 µM) | 1 to 4 (≈ 2.53 to 10.1 µM) | 8 to 32 (≈ 20.2 to 80.9 µM) | < 1 | 1 to 4 (≈ 2.53 to 10.1 µM) | < 1
C[C@@H](O)[C@H]1C(=O)N2C(C(=O)O)=C(SC3CN([C@@H]4CCC[C@@H](N)C4)C3)[C@H](C)[C@H]12 [Example 16, (4R,5S,6S)-3-((1-((1R,3R)-3-aminocyclohexyl)azetidin-3-yl)thio)-6-((R)-1-hydroxyethyl)-4-methyl-7-oxo-1-azabicyclo[3.2.0]hept-2-ene-2-carboxylic acid] | 1 to 4 (≈ 2.53 to 10.1 µM) | 8 to 32 (≈ 20.2 to 80.9 µM) | 8 to 32 (≈ 20.2 to 80.9 µM) | 1 to 4 (≈ 2.53 to 10.1 µM) | 8 to 32 (≈ 20.2 to 80.9 µM) | < 1 | 1 to 4 (≈ 2.53 to 10.1 µM) | < 1
C[C@@H](O)[C@H]1C(=O)N2C(C(=O)O)=C(SC3CN(Cc4cnc(N)nc4)C3)[C@H](C)[C@H]12 [Example 22, (4R,5S,6S)-3-((1-((2-aminopyrimidin-5-yl)methyl)azetidin-3-yl)thio)-6-((R)-1-hydroxyethyl)-4-methyl-7-oxo-1-azabicyclo[3.2.0]hept-2-ene-2-carboxylic acid] | 1 to 4 (≈ 2.47 to 9.86 µM) | > 32 | 8 to 32 (≈ 19.7 to 78.9 µM) | 1 to 4 (≈ 2.47 to 9.86 µM) | 8 to 32 (≈ 19.7 to 78.9 µM) | < 1 | 1 to 4 (≈ 2.47 to 9.86 µM) | < 1
C[C@@H](O)[C@H]1C(=O)N2C(C(=O)O)=C(SC3CN(Cc4ccc(N)nc4)C3)[C@H](C)[C@H]12 [Example 23, (4R,5S,6S)-3-((1-((6-aminopyridin-3-yl)methyl)azetidin-3-yl)thio)-6-((R)-1-hydroxyethyl)-4-methyl-7-oxo-1-azabicyclo[3.2.0]hept-2-ene-2-carboxylic acid] | 1 to 4 (≈ 2.47 to 9.89 µM) | > 32 | 8 to 32 (≈ 19.8 to 79.1 µM) | 1 to 4 (≈ 2.47 to 9.89 µM) | 8 to 32 (≈ 19.8 to 79.1 µM) | < 1 | 1 to 4 (≈ 2.47 to 9.89 µM) | < 1
C[C@@H](O)[C@H]1C(=O)N2C(C(=O)O)=C(S[C@@H]3CCN(Cc4cnc(N)nc4)C3)[C@H](C)[C@H]12 [Example 24, (4R,5S,6S)-3-(((R)-1-((2-aminopyrimidin-5-yl)methyl)pyrrolidin-3-yl)thio)-6-((R)-1-hydroxyethyl)-4-methyl-7-oxo-1-azabicyclo[3.2.0]hept-2-ene-2-carboxylic acid] | 1 to 4 (≈ 2.38 to 9.54 µM) | > 32 | 8 to 32 (≈ 19.1 to 76.3 µM) | 1 to 4 (≈ 2.38 to 9.54 µM) | 8 to 32 (≈ 19.1 to 76.3 µM) | < 1 | 1 to 4 (≈ 2.38 to 9.54 µM) | < 1
C[C@@H](O)[C@H]1C(=O)N2C(C(=O)O)=C(S[C@@H]3CCN(Cc4ccc(N)nc4)C3)[C@H](C)[C@H]12 [Example 25, (4R,5S,6S)-3-(((R)-1-((6-aminopyridin-3-yl)methyl)pyrrolidin-3-yl)thio)-6-((R)-1-hydroxyethyl)-4-methyl-7-oxo-1-azabicyclo[3.2.0]hept-2-ene-2-carboxylic acid] | 1 to 4 (≈ 2.39 to 9.56 µM) | > 32 | 8 to 32 (≈ 19.1 to 76.5 µM) | 1 to 4 (≈ 2.39 to 9.56 µM) | 8 to 32 (≈ 19.1 to 76.5 µM) | < 1 | 1 to 4 (≈ 2.39 to 9.56 µM) | < 1
C[C@@H](O)[C@H]1C(=O)N2C(C(=O)O)=C(SC3CN(CC4CCN(C(=N)N)CC4)C3)[C@H](C)[C@H]12 [Example 26, (4R,5S,6S)-3-((1-((1-carbamimidoylpiperidin-4-yl)methyl)azetidin-3-yl)thio)-6-((R)-1-hydroxyethyl)-4-methyl-7-oxo-1-azabicyclo[3.2.0]hept-2-ene-2-carboxylic acid] | < 1 | 8 to 32 (≈ 18.3 to 73.1 µM) | 1 to 4 (≈ 2.29 to 9.14 µM) | 1 to 4 (≈ 2.29 to 9.14 µM) | 1 to 4 (≈ 2.29 to 9.14 µM) | < 1 | 1 to 4 (≈ 2.29 to 9.14 µM) | < 1
C[C@@H](O)[C@H]1C(=O)N2C(C(=O)O)=C(S[C@@H]3CCN([C@H]4CC[C@H](NC(=N)N)CC4)C3)[C@H](C)[C@H]12 [Example 27, (4R,5S,6S)-3-(((R)-1-((1R,4R)-4-guanidinocyclohexyl)pyrrolidin-3-yl)thio)-6-((R)-1-hydroxyethyl)-4-methyl-7-oxo-1-azabicyclo[3.2.0]hept-2-ene-2-carboxylic acid] | 1 to 4 (≈ 2.21 to 8.86 µM) | 8 to 32 (≈ 17.7 to 70.9 µM) | 8 to 32 (≈ 17.7 to 70.9 µM) | 1 to 4 (≈ 2.21 to 8.86 µM) | 1 to 4 (≈ 2.21 to 8.86 µM) | < 1 | 1 to 4 (≈ 2.21 to 8.86 µM) | < 1
C[C@@H](O)[C@H]1C(=O)N2C(C(=O)O)=C(S[C@@H]3CCN(C4CCN(C)CC4)C3)[C@H](C)[C@H]12 [Example 29, (4R,5S,6S)-6-((R)-1-hydroxyethyl)-4-methyl-3-(((R)-1-(1-methylpiperidin-4-yl)pyrrolidin-3-yl)thio)-7-oxo-1-azabicyclo[3.2.0]hept-2-ene-2-carboxylic acid] | 1 to 4 (≈ 2.44 to 9.77 µM) | 8 to 32 (≈ 19.5 to 78.1 µM) | 8 to 32 (≈ 19.5 to 78.1 µM) | 1 to 4 (≈ 2.44 to 9.77 µM) | 8 to 32 (≈ 19.5 to 78.1 µM) | < 1 | 1 to 4 (≈ 2.44 to 9.77 µM) | < 1
C[C@@H](O)[C@H]1C(=O)N2C(C(=O)O)=C(S[C@@H]3CCN([C@@H]4CC[C@@H](NC(=N)N)C4)C3)[C@H](C)[C@H]12 [Example 30, (4R,5S,6S)-3-(((R)-1-((1R,3R)-3-guanidinocyclopentyl)pyrrolidin-3-yl)thio)-6-((R)-1-hydroxyethyl)-4-methyl-7-oxo-1-azabicyclo[3.2.0]hept-2-ene-2-carboxylic acid] | 1 to 4 (≈ 2.29 to 9.14 µM) | > 32 | 8 to 32 (≈ 18.3 to 73.1 µM) | 1 to 4 (≈ 2.29 to 9.14 µM) | 8 to 32 (≈ 18.3 to 73.1 µM) | 1 to 4 (≈ 2.29 to 9.14 µM) | 1 to 4 (≈ 2.29 to 9.14 µM) | < 1
C[C@@H](O)[C@H]1C(=O)N2C(C(=O)O)=C(S[C@@H]3CCN([C@H]4CC[C@@H](NC(=N)N)C4)C3)[C@H](C)[C@H]12 [Example 31, (4R,5S,6S)-3-(((R)-1-((1S,3R)-3-guanidinocyclopentyl)pyrrolidin-3-yl)thio)-6-((R)-1-hydroxyethyl)-4-methyl-7-oxo-1-azabicyclo[3.2.0]hept-2-ene-2-carboxylic acid] | < 1 | 8 to 32 (≈ 18.3 to 73.1 µM) | 1 to 4 (≈ 2.29 to 9.14 µM) | < 1 | 1 to 4 (≈ 2.29 to 9.14 µM) | < 1 | 1 to 4 (≈ 2.29 to 9.14 µM) | < 1
